Series [1] can be described thus: Charge density of cationizing agents, antimicrobial agent and fibres. Format: physicochemical.
A short description of series [2]: Benzalkonium chloride release from wetted paper, lab blender extraction method. Format: physicochemical. Particulars: hand towel made of recycled pulp; cationizing agent about 1.2 wt % (12 kg/T); benzalkonium chloride about 1 wt %. From the text: As mentioned above, the cationizing agent at least partially neutralizes the paper anionic charges. Thereby, a portion of the antimicrobial agent, which can also be cationic, is not retained on the tissue paper when the latter is wetted and is thereby released. In an embodiment, the tissue paper has a release rate between approximately 0.01 wt % and 0.6 wt % when wetted. In an alternative embodiment, the tissue paper has a release rate between approximately 0.05 wt % and 0.2 wt % when wetted. For example, a tissue paper containing about 0.3 wt % of antimicrobial agent can release about 0.1 wt % of antimicrobial agent when wetted. The antimicrobial agent released from the tissue paper is measured relatively to the original, substantially dry tissue paper weight including the cationizing and antimicrobial agents. The antimicrobial agent released from the tissue paper is measured in a solution, such as water, following extraction. For the release rates mentioned in the application, the extraction is carried out by the lab blender method described below. The antimicrobial agent in the solution is measured by a method such as and without being limitative biphasic titration or high performance liquid chromatography (HPLC).
The amount of antimicrobial agent released will be highly dependent on the method used to retrieve it from the paper. […]

For the molecule “benzalkonium chloride [Antimicrobial agent]”, the Charge density result in series [1] (Table 4, recycled deinked pulp (DIP) hand towel) was “+2.9 equiv/kg”; in series [1] (Table 5, virgin bleached Kraft hand towel), “+2.9 equiv/kg”.

For the molecule `CCCCCCCCCCCCCCCC[N+](C)(C)C.[Cl-]` [Cetyltrimethylammonium chloride, cetyltrimethylammonium chloride], the “Charge density” value in series [1] (cationic agent of Table 3) was 3.76 eq/kg. Moreover, the Benzalkonium chloride released in series [2] is reported as 0.23 % (w/w).

The values above are taken from patent US8802132B2, “Anti-microbial tissue paper and process to manufacture same” (Cascades Canada ULC, priority 2010, dated 2014).
